Source: the NIST ThermoML archive (doi:10.1016/j.tca.2011.06.003)

Experiment: xn = mol fraction of the nth substance listed
Conditions: 101 kPa, Liquid; for speed of sound: Sing-around technique in a fixed-path interferometer; for mass density: Vibrating tube method

NCCNCCN [di(2-aminoethyl)amine] + CC(C)CO
Conditions | mass density [kg/m3] | speed of sound [m/s] | viscosity [mPa·s]
293.15 K, x1 = 0.054 | 815.237 | 1243 | –
293.15 K, x1 = 0.1043 | 826.644 | 1275.2 | –
293.15 K, x1 = 0.1529 | 836.817 | 1305.2 | –
293.15 K, x1 = 0.2068 | 847.162 | 1337.4 | –
293.15 K, x1 = 0.2535 | 855.512 | 1364.9 | –
293.15 K, x1 = 0.305 | 863.833 | 1390.5 | –
293.15 K, x1 = 0.4057 | 878.879 | 1439.4 | –
293.15 K, x1 = 0.5036 | 892.182 | 1484.7 | –
293.15 K, x1 = 0.6053 | 905.319 | 1531.6 | –
293.15 K, x1 = 0.7048 | 919.507 | 1570.3 | –
293.15 K, x1 = 0.8098 | 929.46 | 1613.2 | –
293.15 K, x1 = 0.8522 | 933.916 | 1630.9 | –
293.15 K, x1 = 0.9074 | 939.952 | 1653.2 | –
293.15 K, x1 = 0.9537 | 944.995 | 1671.9 | –
298.15 K, x1 = 0.054 | 811.313 | 1226.2 | 4.027
298.15 K, x1 = 0.1043 | 822.66 | 1258 | 4.548
298.15 K, x1 = 0.1529 | 832.792 | 1287.9 | 5.094
298.15 K, x1 = 0.2068 | 843.096 | 1319.8 | 5.514
298.15 K, x1 = 0.2535 | 851.38 | 1345.4 | 5.73
298.15 K, x1 = 0.305 | 859.744 | 1372.5 | 5.908
298.15 K, x1 = 0.4057 | 874.785 | 1421.6 | 6.024
298.15 K, x1 = 0.5036 | 888.088 | 1466.7 | 5.962
298.15 K, x1 = 0.6053 | 901.203 | 1511.4 | 5.795
298.15 K, x1 = 0.7048 | 915.398 | 1551.7 | 5.661
298.15 K, x1 = 0.8098 | 925.283 | 1594.3 | 5.603
298.15 K, x1 = 0.8522 | 929.73 | 1611.7 | 5.574
298.15 K, x1 = 0.9074 | 935.74 | 1633.9 | 5.541
298.15 K, x1 = 0.9537 | 940.776 | 1651.9 | 5.539
303.15 K, x1 = 0.054 | 807.355 | 1209.3 | 3.292
303.15 K, x1 = 0.1043 | 818.653 | 1241.1 | 3.707
303.15 K, x1 = 0.1529 | 828.735 | 1270.7 | 4.092
303.15 K, x1 = 0.2068 | 839.013 | 1302.4 | 4.365
303.15 K, x1 = 0.2535 | 847.289 | 1328.1 | 4.521
303.15 K, x1 = 0.305 | 855.641 | 1355.1 | 4.656
303.15 K, x1 = 0.4057 | 870.683 | 1404.1 | 4.762
303.15 K, x1 = 0.5036 | 883.968 | 1449.2 | 4.732
303.15 K, x1 = 0.6053 | 897.071 | 1493.2 | 4.695
303.15 K, x1 = 0.7048 | 911.268 | 1533.6 | 4.652
303.15 K, x1 = 0.8098 | 921.103 | 1575.5 | 4.575
303.15 K, x1 = 0.8522 | 925.54 | 1592.9 | 4.525
303.15 K, x1 = 0.9074 | 931.531 | 1614.5 | 4.508
303.15 K, x1 = 0.9537 | 936.554 | 1632.6 | 4.49
308.15 K, x1 = 0.054 | 803.363 | 1192.6 | 2.815
308.15 K, x1 = 0.1043 | 814.618 | 1224.2 | 3.146
308.15 K, x1 = 0.1529 | 824.666 | 1254 | 3.463
308.15 K, x1 = 0.2068 | 834.918 | 1285.4 | 3.654
308.15 K, x1 = 0.2535 | 843.178 | 1310.6 | 3.768
308.15 K, x1 = 0.305 | 851.532 | 1337.4 | 3.855
308.15 K, x1 = 0.4057 | 866.568 | 1386.9 | 3.927
308.15 K, x1 = 0.5036 | 879.851 | 1431.7 | 3.966
308.15 K, x1 = 0.6053 | 892.938 | 1475.8 | 3.919
308.15 K, x1 = 0.7048 | 907.117 | 1515.9 | 3.899
308.15 K, x1 = 0.8098 | 916.922 | 1556.7 | 3.817
308.15 K, x1 = 0.8522 | 921.354 | 1574.1 | 3.807
308.15 K, x1 = 0.9074 | 927.328 | 1595.3 | 3.789
308.15 K, x1 = 0.9537 | 932.338 | 1613.3 | 3.78
313.15 K, x1 = 0.054 | 799.326 | 1175.8 | –
313.15 K, x1 = 0.1043 | 810.545 | 1208 | –
313.15 K, x1 = 0.1529 | 820.566 | 1237.8 | –
313.15 K, x1 = 0.2068 | 830.795 | 1269.1 | –
313.15 K, x1 = 0.2535 | 839.045 | 1294.6 | –
313.15 K, x1 = 0.305 | 847.399 | 1321.3 | –
313.15 K, x1 = 0.4057 | 862.439 | 1371 | –
313.15 K, x1 = 0.5036 | 875.718 | 1414.9 | –
313.15 K, x1 = 0.6053 | 888.795 | 1459.1 | –
313.15 K, x1 = 0.7048 | 902.896 | 1499.5 | –
313.15 K, x1 = 0.8098 | 912.74 | 1538.9 | –
313.15 K, x1 = 0.8522 | 917.161 | 1555.8 | –
313.15 K, x1 = 0.9074 | 923.121 | 1576.3 | –
313.15 K, x1 = 0.9537 | 928.116 | 1593.7 | –
